Results reported in patent publication US11078236B2, “Selenium-based therapies” (Burke Neurological Institute, priority 2017, dated 2021).
“Also recorded” adds a separate entry of the source. Starred links: 1 amine or outer side, 2 acyl side, 3 side chain; linkers in the order of their positions; H or OH if unused. Positions of bridges follow the written chain, without caps; N, C: chain ends. Non-standard residues stand in square brackets, D forms with d. Residues, ends and D or L forms follow the SMILES beside them. Chains are numbered I, II in the order given. Actinocin(9to1) = Cc1c2oc3c(C)ccc(C(=O)[*:1])c3nc-2c(C(=O)[*:2])c(N)c1=O; NMeV = CN[C@H](C(=O)O)C(C)C; Sec = N[C@@H](C[SeH])C(=O)O; Sar = CNCC(=O)O

Assays:
GPX4-deficient neurons = assay: Survival of neurons with siRNA knockdown of GPX4; assay type: cell-based, mice or rats; details: 50 μM NAC, siGPX4
Text: Knock down of GPX4 was achieved by using lipofectamine RNAimax (Thermo-Fisher) to transfect primary cortical neurons with specific siRNA against GPX4. Three different sequences of siRNA were used separately to validate target specificity as opposed to sequence specificity. Knockdown was validated by mRNA and protein.

[1] = tested on: GPX4 and other selenoprotein genes; assay: Quantitative PCR of antioxidant/selenoprotein genes in neurons; assay type: cell-based, mice or rats
Method: (§1) Total RNA was prepared using the NucleoSpin RNA II kit (MACHEREYNAGEL) according to the manufacturer's protocol. Duplex real-time PCR reactions were performed with gene expression assays using 6-carboxyfluorescein-labeled probes (Applied Biosystems) for antioxidant enzymes. All expression levels were normalized to β-actin gene expression levels, which were determined with a VIC-labeled probe (Applied Biosystems). All experiments were performed using a Quant 6 Real-Time PCR System (Applied Biosystems).
(§2) Primary cortical neurons were obtained from either embryonic (E15) CD1 mice or embryonic (E17) Sprague-Dawley rats. Briefly, cortices were dissected, homogenized, and plated in minimum essential medium containing 10% fetal bovine serum (FBS), 5% horse serum, and 1% penicillin/streptomycin in 96-well plates, 6-well plates, or 10-cm dishes. Neurons were maintained at 37° C. with 5% CO2. All experiments were started at 24 hours after plating.

primary cortical neurons [2] = assay: In vitro ICH model: hemin-induced ferroptosis, MTT survival and Live/Dead assay; assay type: cell-based, mice or rats; details: for toxicity / therapeutic window in cultured neurons: in vitro, increasing concentrations
Method: as §2
Cell death was induced in primary cortical neurons and hippocampal HT22 cells by treatment with hemin ([…]; Sigma). For the neuroprotection studies, cells were treated with 80 μM hemin in the presence of sodium selenite (Sigma) diluted in water. Cell viability was analyzed 16 hours after treatment. Cells were rinsed with warm phosphate-buffered saline (PBS) and assessed by MTT assay. The fidelity of MTT assays in measuring viability was verified by calcein-AM/ethidium homodimer-1 staining (Live/Dead assay, Molecular Probes) following the manufacturer's instructions.

[3] = ICP-MS measurement of selenium levels; set-up: species or system mouse; details: in vitro and in vivo after Se treatment
Method: FIG. 2M is a graph showing inductively coupled mass spectrometry (ICP-MS) measurement of selenium levels normalized to protein concentration in cortical neurons treated with 80 μM hemin and/or Se.
FIG. 5D is a graph showing inductively coupled mass spectrometry (ICP-MS) measurement of selenium levels normalized to protein concentration following ICH and ICH+2.5 μM Se in striatum at 24 h post treatment (n=8).

[4] = tested on: GPX4 and selenoprotein mRNA in striatum; assay type: in vivo, mouse; details: ICV injection
Method: FIG. 5A is a schematic showing ICV injection of dose dependent Se (1-5 μM) and collection of striatum 6 hours later to extract RNA for quantitative PCR.
Male C57BL/6 mice (8 to 10 weeks of age; Charles River) were anesthetized with isoflurane (2 to 5%) and placed on a stereotaxic frame. During the procedure, the animal's body temperature was maintained at 37° C. with a homeothermic blanket. With a nanomite syringe pump (Harvard Apparatus) and a Hamilton syringe, […] of collagenase (0.075 IU; Sigma) was infused into the right striatum at a flow rate of 0.120 ml/min. Relative to the bregma point, the stereotaxic coordinates of the injection were as follows: lateral, −0.20; anteroposterior, 0.62; and dorsoventral, −0.40. In control animals, […] of saline was infused. The treatment group received sodium selenite (1-5 μM) 2 hours after collagenase infusion directly into the ventricals. The control groups received vehicle (saline) alone. The animals were randomized to sham or ICH groups. The identity of the mice that received vehicle or Se was masked to surgeons who performed the ICH. […]
Total RNA was prepared using the NucleoSpin RNA II kit (MACHEREYNAGEL) according to the manufacturer's protocol. […] All expression levels were normalized to β-actin gene expression levels, which were determined with a VIC-labeled probe (Applied Biosystems). […]

GPX4 mRNA = GPX4 mRNA in organs after intraperitoneal injection of peptides; assay type: in vivo, mouse; details: 12 μg/g intraperitoneal, 24 h
Method: FIG. 69B quantifies GPX4 mRNA levels 24 h following IP injection of SelPep (4-12 μg/g; n=3) in the striatum, cortex, heart or liver.
as §1

[5] = tested on: collagenase mouse model of ICH; assay: Collagenase-induced mouse model of ICH: behavior, fluorojade, immunofluorescence; assay type: in vivo
Method: Male C57BL/6 mice (8 to 10 weeks of age; Charles River) were anesthetized with isoflurane (2 to 5%) and placed on a stereotaxic frame. During the procedure, the animal's body temperature was maintained at 37° C. with a homeothermic blanket. With a nanomite syringe pump (Harvard Apparatus) and a Hamilton syringe, […] of collagenase (0.075 IU; Sigma) was infused into the right striatum at a flow rate of 0.120 ml/min. Relative to the bregma point, the stereotaxic coordinates of the injection were as follows: lateral, −0.20; anteroposterior, 0.62; and dorsoventral, −0.40. In control animals, […] of saline was infused. […] The control groups received vehicle (saline) alone. The animals were randomized to sham or ICH groups. The identity of the mice that received vehicle or Se was masked to surgeons who performed the ICH. […] Proper postoperative care was taken until the animals recovered completely.
The corner task assessed the integrated sensorimotor function in both stimulation of vibrissae (sensory neglect) and rearing (motor response) (See Schallert et al., Neuropharmacology 39(5): p. 777-87 (2000)). Mice were placed between two cardboard pieces forming a corner with a 30° angle. While maintaining the 30° angle, the boards were gradually moved toward the mouse until the mouse approached the corner, reared upward, and turned 180° to face the open end. The direction (left or right) in which the mouse turned around was recorded for each trial. Ten trials were performed for each mouse. The adhesive tape removal task in mice was performed as previously described. Briefly, adhesive tape was placed on the planter region of the forward paw (right and left) of mice. The time from which the tape was applied to when the mouse successfully removed it was recorded for each paw. A maximum of 300 s for each paw was allowed.
For immunocytochemical experiments in the brain, three control mice with induced unilateral stroke and three selenium-treated mice with induced unilateral stroke were perfusion fixed with 4% PFA in PBS for 15 min. The brains were isolated and postfixed for 1 h in 4% PFA. After cryoprotection in a sucrose gradient, brain sections were cut at 30 μm.
Free-floating brain sections were blocked for 1 h in a PBS solution containing 3% bovine serum (Sigma), and 0.5% Triton X-100 (Biorad). Primary antibodies were diluted in the same solution and applied for 12 h, followed by incubation for 1 h with the appropriate secondary antibody, conjugated to Alexa 488 (1:1000; green fluorescence, Molecular Probes) or Alexa 568 (1:1000; red fluorescence, Molecular Probes). For nuclear labeling, ToPro was added to the mixture (1:15000, far red fluorescence, Invitrogen, T3605). […]

primary cortical neurons [6] = assay: Oxidative stress-induced neuronal death: HCA-induced ferroptosis, MTT survival; assay type: cell-based, mice or rats; details: HCA 5 mM, survival at 24 h
Method: as §2
Primary cortical neurons and HT22 cells were exposed to 5 mM HCA (glutamate structural analog) to induce oxidative stress-induced cell death, and sodium selenite (Sigma) was applied in media. 24 hours after treatment with HCA, the cells were rinsed with warm PBS, and cell viability was assessed by MTT assay (Life Technologies) and calcein-AM/ethidium homodimer-1 staining (Live/Dead assay, Molecular Probes).

[7] = 12 μg/g IP from 2 h post-ICH, daily for 7 days, from day 3, significant by day 14

CC(=O)N[C@@H](CS)C(=O)O [NAC, N-acetylcysteine]
survival of GPX4-deficient neurons (GPX4-deficient neurons): prevents cell death due to GPX4 molecular depletion; also recorded: protected GPX4-deficient neurons; also recorded: prevents cell death due to GPX4 knockdown | effect on GPX4 expression ([1]; 50 μM NAC): no effect on GPX4 mRNA levels; also recorded: without affecting GPX4 expression

O=[Se](O)O [Se, Sodium selenite]
toxicity / therapeutic window in cultured neurons (primary cortical neurons [2]): parabolic dose response with a narrow therapeutic window | selenium levels by ICP-MS [3]: significant increases in cellular selenium | toxicity or death in mice ([4]; any concentration (1-5 μM)): no toxicity or death | optimal Se concentration for inducing selenoprotein expression ([4]; uninjured mice, striatum 6 h later): 2.5 µM

CC(C)C[C@H](NC(=O)[C@H](CC(N)=O)NC(=O)[C@H](C[SeH])NC(=O)[C@H](CCCCN)NC(=O)[C@H](C[SeH])NC(=O)[C@H](CCCCN)NC(=O)[C@H](CCCNC(=N)N)NC(=O)[C@H](CCCNC(=N)N)NC(=O)[C@H](CCCNC(=N)N)NC(=O)[C@H](CCC(N)=O)NC(=O)[C@H](CCCNC(=N)N)NC(=O)[C@H](CCCNC(=N)N)NC(=O)[C@H](CCCCN)NC(=O)[C@H](CCCCN)NC(=O)[C@H](CCCNC(=N)N)NC(=O)CNC(=O)[C@@H](N)Cc1ccc(O)cc1)C(=O)N[C@@H](CC(N)=O)C(N)=O [Tat-SelPep] (H-YGRKKRRQRRRK[Sec]K[Sec]NLN-NH2)
single cell analysis of cell viability and death (live/dead) (primary cortical neurons [2]; hemin 80 μM, 16 h, 1 μM peptide): prevented hemin induced ferroptosis and completely preserved cell bodies and neurites of neurons | protection from hemin-induced ferroptosis (primary cortical neurons [2]; hemin 80 μM, survival at 16 h, MTT): concentration dependent protection | toxicity / therapeutic window in cultured neurons (primary cortical neurons [2]): wide therapeutic window with no apparent toxicity | GPX4 expression in heart, liver, striatum and cortex (GPX4 mRNA): induced significant expression of GPX4 | GPX4, SeIP, TXNRD1, GPX3 and SelK mRNA ([1]; 1 μM peptide, 6 h post-treatment): induced significant increases | cell death measured by Fluoro-Jade staining ([5]; 12 μg/g IP from 2 h post-ICH, daily for 7 days): reduced cell death | sensory neglect task [5, 7]: improved | spatial neglect task [5, 7]: improved | behavior outcomes in animals overexpressing mSp1 ([5]; AAV8-mSp1 in striatum, 12 μg/g IP, day 14 post-stroke): fail to demonstrate significant behavior improvements | protection from HCA-induced ferroptosis (primary cortical neurons [6]): concentration dependent protection

Cc1c2oc3c(C)ccc(C(=O)N[C@@H]4C(=O)N[C@H](C(C)C)C(=O)N5CCC[C@H]5C(=O)N(C)CC(=O)N(C)[C@@H](C(C)C)C(=O)O[C@@H]4C)c3nc-2c(C(=O)N[C@@H]2C(=O)N[C@H](C(C)C)C(=O)N3CCC[C@H]3C(=O)N(C)CC(=O)N(C)[C@@H](C(C)C)C(=O)O[C@@H]2C)c(N)c1=O [actinomycin-D] (I: T[dV]P[Sar][NMeV] / II: T[dV]P[Sar][NMeV]; ester I:1-I:C, II:1-II:C; linker I:N-II:N via Actinocin(9to1))
protection against hemin toxicity induced by Se (primary cortical neurons [2]; co-treatment with transcription inhibitor, MTT): abrogated protection; also recorded: abolished protection against hemin toxicity | Se-dependent increase in GPX4 mRNA ([1]; co-treatment with transcription inhibitor): inhibited Se-dependent increase in GPX4 mRNA
